Experimental data from article PMC11504387, “Synthesis and Biological Activity Assessment of 2-Styrylbenzothiazoles as Potential Multifunctional Therapeutic Agents” (Antioxidants, 2024).
One block for each compound: values may come before it.

Tests used:
skin HaCat keratinocytes = assay: Cell growth inhibition assay, HaCat; type: cell-based, human; conditions: 24 h incubation; mean ± SD
Experimental: Cell growth inhibition analyses were performed on human melanoma Colo38 cells and skin HaCat keratinocytes. Human melanoma Colo38 cells were kindly given by Dr. Patrizio Giacomini (Laboratory of Immunology, Regina Elena Institute, Rome, Italy). HaCat cells were obtained from Istituto Zooprofilattico Sperimentale della Lombardia e dell’Emilia-Romagna, Brescia, Italy. Cells were seeded at 40,000 cells/mL and 25,000 cells/mL, respectively. Colo38 cells were maintained in RPMI 1640, supplemented with 10% foetal bovine serum (FBS), penicillin (100 Units/mL), and streptomycin (100 µg/mL). HaCat cells were maintained in DMEM, supplemented with 10% fatal bovine serum (FBS), penicillin (100 Units/mL), streptomycin (100 µg/mL) and glutamine (2 mM); the incubation was performed at 37 °C in a 5% CO2 atmosphere. Compounds were dissolved in DMSO to obtain 50 mM stock solutions and diluted before cell treatment in MeOH. The tested compounds were added at serial dilutions to the cell cultures (from 0.1 to 100 µM) and incubated for 24 h further. Cells were then harvested, suspended in physiological solution, and counted with a Z2 Coulter Counter (Coulter Electronics, Hialeah, FL, USA). The number of cells/mL and the IC50 values were determined when untreated cells were in the log phase of cell growth. Samples of vehicles and untreated cells were included in each plate. Cisplatin was used as positive control for the HaCat cells, while N1-(4-arylidene)-1H-(2-OH-4-N(Et)2-phenyl)-[d]imidazole-2-carbohydrazide was used as positive control for the Colo38 cell line.

[1] = DPPH radical scavenging activity; type: biochemical; conditions: values in brackets; mean ± SD
Experimental: For all the compounds, 0.750 mL of a DMSO-MeOH solution mixed with 1.5 mL of DPPH solution (0.004%) in MeOH was analysed. The samples were kept in the dark at room temperature for 30 min and then analysed with a spectrophotometer by reading the absorbance at 517 nm (lambda max of the absorption spectrum of the DPPH radical). Equation (5) was used to obtain the percentage inhibition (%) of the radical: DPPH radical-scavenging capacity (%) = [1 − (A1 − A2)/A0] × 100%(5) where A2 is the blank (MeOH), and A1 and A0 are, respectively, the recorded absorbances of the sample and control (0.750 MeOH and 1.5 mL DPPH solution), directly proportional to the concentration of residual DPPH. An initial screening was performed by testing all compounds at a concentration of 1 mg/mL (Trolox® was used as the standard); subsequently, compounds showing >90% radical inhibition were further tested to calculate their IC50 value (expressed in µg/mL). Ferulic acid was used as positive control. A linear regression was performed to calculate the sample concentration able to eliminate 50% of DPPH free radicals.

[2] = Ferric reducing antioxidant power (FRAP) test; type: biochemical; conditions: Trolox equivalents; mean ± SD
Experimental: The FRAP test, based on a colorimetric reaction, can assess the ability of a sample to reduce ferric ions to ferrous ions when complexed with 2,4,6-trispiridyl-s-triazine (TPTZ). The FRAP solution consisted of 0.1 M acetate buffer (pH 3.6), 10 mmol/L of TPTZ in 40 mM HCl and a 20 mM solution of FeCl3, in a 10:1:1 ratio. A 1.9 mL volume of the FRAP solution was incubated with 0.1 mL of the sample solution at 37 °C for 10 min. The absorbance was then read with a UV-Vis spectrophotometer at a wavelength of 593 nm, which corresponds to the maximum absorbance peak of the Fe^2+-TPTZ complex. Trolox® was used as a standard, and ferulic acid was used as positive control, and the results are expressed as µmol TE/g.

ORAC assay = type: biochemical; conditions: Trolox equivalents; mean ± SD
Experimental: The ORAC assay was performed based on the previously modified Hong procedure. The sodium salt of fluorescein (85 nM) was used as a target for free radical attack with 2,2′-azobis(2-amidinopropane) dichloride (AAPH) as a peroxyl radical generator in the final assay mixture (total volume of 0.2 mL). The test involves a calibration curve of Trolox (standard control) with different concentrations (40 to 240 μM). The compounds tested were first dissolved in DMSO:MeOH and then diluted in phosphate buffer solution pH 7.4. Fluorescence measurements were performed at 37 °C and recorded at 5-min intervals up to 30 min after the addition of AAPH. ORAC values were calculated as the difference in areas under the fluorescein quenching curves between the blank and the sample and were expressed as µmol Trolox equivalents (TE) per gram of dried sample.

primary human monocytes = assay: Lipid mediator (LM) formation in primary human monocytes; type: cell-based; conditions: diclofenac 1 µM; A23187 2.5 µM, 30 min
From the text: Monocytes and polymorphonuclear leukocytes (PMNL) were freshly isolated from human blood. Human blood and leukocyte concentrates were provided by the Institute for Transfusion Medicine of the University Hospital Jena (Thuringia, Germany). The protocols for experiments with human blood and blood cells were approved by the ethical commission of the Friedrich Schiller University of Jena. Following blood density centrifugation and separation of cell populations, peripheral blood mononuclear cells (PBMC) were left to adhere for 1 h to cell culture flasks (monocyte-enriched PBMC). Non-adherent cells were washed off from the adherent monocytes, before pre-incubating monocytes (5 × 10^6 cells/mL) with the test compounds for 10 min at 37 °C. LM formation was elicited with A23187 (2.5 µM) and CaCl2 (1 mM) over 30 min. The reaction was stopped with 1 mL of ice-cold methanol containing 10 µL of deuterium-labelled internal LM standards (200 nM d8-5S-HETE, d4-LTB4, d5-LXA4, d5-RvD2, d4-PGE2 and 10 µM d8-AA). LMs were extracted using Sep-Pak C18 35 cc Vac Cartridges (Waters, Milford, MA, USA) and analysed by UPLC-MS/MS as described by Pein et al..
The ability to modulate LM formation was screened in primary human monocytes expressing the enzymes required for PGE2, LTB4, and 12-HETE production (Figure 2A). Cells were pre-treated with the test compounds BZTst1–6 (10 µM) or the reference COX inhibitor diclofenac (1 µM) for 10 min prior to stimulation with the calcium ionophore A23187 (2.5 µM) for 30 min.

Compound: N.N.[Cl][Pt][Cl] [Cisplatin, reference compound]
IC50 (skin HaCat keratinocytes): 2000 ± 400 nM

DPPH IC50 (sample concentration able to scavenge 50% of the DPPH radical) [1]: (9.90 ± 0.70) µg/mL
Compound: COc1cc(/C=C/C(=O)O)ccc1O [Ferulic Acid, reference compound]
FRAP [2]: 6872.60 ± 10.70 µmolTE/g
ORAC (ORAC assay): 15,906.40 ± 14.20 µmolTE/g

Compound: O=C(O)Cc1ccccc1Nc1c(Cl)cccc1Cl [diclofenac, reference compound]
PGE2 formation (primary human monocytes): significantly downregulated
